Assay results: patent US6419907B1, “Use of cupric complex of 3,5-disopropylsalicylic acid by way of a cosmetic product and cosmetic compositions containing this compound for protecting the human epidermis against UV radiation” (L'Oreal, priority 1987, dated 2002)

Tested on: skin
Test: application on the skin against injuries caused by solar/UV radiation
Assay type: in vivo
Details: persists in the presence of sunscreens

For `CC(C)c1cc2c(c(C(C)C)c1)[O][Cu]1([O]C2=O)[O]C(=O)c2cc(C(C)C)cc(C(C)C)c2[O]1` [copper (II) bis(3,5-diisopropylsalicylate)], the “intensity of the solar erythema” value was “reduced” and the “number of degraded keratinocytes” value was “reduced”.
